Experimental data as given in patent US20190083521A1, “COMBINATION THERAPY FOR TREATING CANCER” (Epizyme, Inc., priority 2014, published 2019).
Like-named read-outs stand apart in the source and are kept apart here. Blank lines part the entries; values can stand above or below the molecule they belong to.

Key:
[1] = tested on: SKM-1 (non-MLL-rearranged AML) cells; assay: Combination proliferation assay with Compound A2 (CellTiter-Glo, Chou-Talalay CI); format: cell-based, human
Procedure: (§1) Graphs representing values of combination index (CI) versus Fractional effect (Fa) known as Fa-CI plots were generated and synergy was evaluated.
(§2) Viability was determined using CellTiter-Glo® (Promega).
MV4-11 cells were maintained in IMDM supplemented with 10% fetal bovine serum. MOLM-13 and SKM-1 cells were maintained in Roswell Park Memorial Institute medium (RPMI) supplemented with 10% fetal bovine serum. They were cultured in flasks or plates in a humidified 5% CO2 atmosphere.
Proliferation studies were performed using MOLM-13, MV4-11 and SKM-1 cell lines in vitro to evaluate the cancer cell killing effect of a combination of two agents together on cell growth. Initial proliferation studies were performed to determine the IC50 values of a given compound in each cell line. The cell counts were measured by ATP quantitation using the Promega Cell Titer Glo kit and luminescence values correspond to the amount of ATP in a given well.
Compounds evaluated for synergy in the co-treatment phase were tested in a range which was bracketed around the IC50's. The compounds were plated to a 96 well plate in a matrix format which includes increasing concentrations of each drug in the combination in a constant ratio, in addition to the effect of each compound alone in the study. Cells were seeded and grown in the log-linear phase for 3 or 7 days in the cotreatment phase. Maximum and minimum inhibition (DMSO alone) controls were used in each plate to calculate fraction affected (Fa) of a test well. DMSO concentration was kept at 0.1% v/v. The drug combination analysis was performed utilizing the Chou-Talalay method. Synergy was determined using the software package Calcusyn by Biosoft. The combination index (CI) is the term used to describe the level of synergy or antagonism in a given test system. A combination index less than one indicates synergy, and a CI greater than one indicates antagonism.
The drug combination analysis was performed using the Chou-Talalay method. Graphs representing values of combination index (CI) versus Fractional effect (Fa) known as Fa-CI plots were generated and synergy was evaluated.

MOLM-13 (MLL-AF9) cells [2] = assay: as above; format: cell-based, human
How it was run: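 Viability by CellTiter-Glo ATP luminescence; fraction affected versus DMSO controls, combination index by Chou-Talalay (CI <1 synergy, >1 antagonism).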

EOL-1 (MLL-PTD) cells = assay: Combination proliferation assay with Compound A2 (Chou-Talalay CI); format: cell-based, human
Procedure: as §1, §2

KOPM-88 (MLL-PTD) cells = assay: as above; format: cell-based, human
Procedure: as §1, §2

MV4-11 (MLL-AF4) cells = assay: Combination proliferation assay with Compound A2 (CellTiter-Glo, Chou-Talalay CI); format: cell-based, human
How it was run: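 Viability by CellTiter-Glo ATP luminescence; fraction affected versus DMSO controls; combination index by Chou-Talalay method (CI <1 synergy, >1 antagonism).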

SKM-1 cells = assay: Example 6 combination screen: 300 nM EPZ-5676 pre-treatment, second compound 72 h, ATPLite, IC50 shift; format: cell-based, human; details: SKM-1 cells; 300 nM EPZ-5676 pre-treatment (4 + 3 days) vs DMSO, then 2nd compound 72 h; ATPLite; IC50 shift of 2nd compound
Procedure: (§3) Cells were then equilibrated in incubators for 24 hours before treatment with a second compound. Treated assay plates were incubated with a second compound for 72 hours. After this time, plates were developed for endpoint analysis using ATPLite to measure ATP content, which is used as an indicator of cell viability.
“N/D” means that IC50 of the second compound could not be determined for both conditions.

[3] = tested on: OCI-AML-4 (MLL-ENL) cells; assay: Example 7 retest: EPZ-5676 pre-treatment, second compound 72 h, Cell Titer Glo, growth inhibition; format: cell-based; details: OCI-AML-4 (MLL-ENL)
MOLM-13 (MLL-AF9) cells [4] = assay: as above; format: cell-based, human; parameters: GI100: unit not given here; details: MOLM-13 (MLL-AF9)
SKM-1 (non-MLLr) cells [5] = assay: as above; format: cell-based, human; parameters: GI100: unit not given here; details: SKM-1 (non-MLLr)
ML-2 (MLL-AF6) cells = assay: as above; format: cell-based; parameters: GI100: unit not given here; details: ML-2 (MLL-AF6), KRAS A146T (het)
RS4-11 (MLL-AF4) cells = assay: as above; format: cell-based; parameters: GI100: unit not given here; details: RS4-11 (MLL-AF4), Ras mutation status: None known, second compound, 72 h
[6] = tested on: OCI-AML-4 (MLL-ENL) cells; assay: Example 7 primary screen: 300 nM EPZ-5676 pre-treatment, second compound 72 h, ATPLite, GI100 shift; format: cell-based; details: OCI-AML-4 (MLL-ENL); 300 nM EPZ-5676 pre-treatment vs DMSO
Procedure: as §3, with “Cells were split using EPZ-5676 or DMSO containing growth media and further incubated for an additional 3-day pre-treatment time. Cells were finally seeded in growth media containing EPZ-5676 or DMSO in 384-well plates at 500 cell/well density. Cells” for “Cells”
(§4) “N/D” means the GI100 of the second compound could not be determined for both conditions and “-” means not tested.
(§5) Growth Inhibition (GI) as a measure of cell viability: The cell viability of vehicle was measured at the time of dosing the second agent (T0) and after seventy-two hours (T72). A GI reading of 0% represents no growth inhibition—cells treated with test compound as compared to T72 vehicle signals were measured. […] A GI 200% represents complete death of all cells in the culture well. Compounds reaching an activity plateau of GI 200% are considered cytotoxic. GI is calculated by applying the following test and equation: […]

THP-1 (MLL-AF9) cells = assay: Example 7 retest: EPZ-5676 pre-treatment, second compound 72 h, Cell Titer Glo, growth inhibition; format: cell-based; parameters: GI100: unit not given here; details: NRAS G12D
MOLM-13 (MLL-AF9) cells [7] = assay: Example 7 primary screen: 300 nM EPZ-5676 pre-treatment, second compound 72 h, ATPLite, GI100 shift; format: cell-based, human; details: MOLM-13 (MLL-AF9); 300 nM EPZ-5676 pre-treatment vs DMSO
Procedure: as §3, with “Cells were split using EPZ-5676 or DMSO containing growth media and further incubated for an additional 3-day pre-treatment time. Cells were finally seeded in growth media containing EPZ-5676 or DMSO in 384-well plates at 500 cell/well density. Cells” for “Cells”
as §4, §5

SKM-1 (non-MLLr) cells [8] = assay: as above; format: cell-based, human; details: SKM-1 (non-MLLr); 300 nM EPZ-5676 pre-treatment vs DMSO
Procedure: as §3, with “Cells were split using EPZ-5676 or DMSO containing growth media and further incubated for an additional 3-day pre-treatment time. Cells were finally seeded in growth media containing EPZ-5676 or DMSO in 384-well plates at 500 cell/well density. Cells” for “Cells”
as §4, §5

[9] = 300 nM EPZ-5676 pre-treatment vs DMSO
[10] = KRAS K117N (homo), second compound, 72 h

SMILES: COc1cccc2c1C(=O)c1c(O)c3c(c(O)c1C2=O)C[C@@](O)(C(C)=O)C[C@@H]3O[C@H]1C[C@H](N)[C@H](O)[C@H](C)O1 [Daunorubicin]
Combination effect with Compound A2 (Table 2) [1]: did not act synergistically
Effect of Compound A2 on antiproliferative activity of the second agent [1]: did not affect
Antiproliferative combination effect after Compound A2 washout (MOLM-13 (MLL-AF9) cells [2]): maintained
Antiproliferative combination effect with Compound A2 (MOLM-13 (MLL-AF9) cells [2]): synergistic
Combination effect with Compound A2 (Table 3) (EOL-1 (MLL-PTD) cells): Synergy (key: Synergy: Drug synergy was statistically defined by CI values less than 1; Antagonistic: antagonism by CI>1; Additive: additive effect by CI equal to 1)
Combination effect with Compound A2 (Table 3) (KOPM-88 (MLL-PTD) cells): Synergy (key: Synergy: Drug synergy was statistically defined by CI values less than 1; Antagonistic: antagonism by CI>1; Additive: additive effect by CI equal to 1)
Antiproliferative combination effect after Compound A2 washout (MV4-11 (MLL-AF4) cells): maintained
Antiproliferative combination effect with Compound A2 (MV4-11 (MLL-AF4) cells): synergistic

GI50 ([3]; NRAS Q61R (het), second compound, 72 h): 70 nM
GI50 (MOLM-13 (MLL-AF9) cells [4]; Homo sapiens, Ras mutation status: None known, second compound, 72 h): 210 nM
GI50 (SKM-1 (non-MLLr) cells [5]; [10]): 20 nM
GI50 (RS4-11 (MLL-AF4) cells; Homo sapiens): 7240 nM
GI50 (THP-1 (MLL-AF9) cells): 60 nM
SMILES: O=C(Nc1ccc2[nH]nc(-c3ccncc3)c2c1)[C@@H]1CCN(CC(=O)N2CCN(c3ccc(-c4ncccn4)cc3)CC2)C1 [SCH772984]
Summary of Combination Studies: SKM-1 (SKM-1 cells): Synergy (considered synergistic if the IC50 value of the second compound decreased by 2-fold or more when EPZ-5676 was added as compared to the DMSO control)
Combination result with EPZ-5676, Retest [3, 9]: Synergy (considered synergistic if the GI100 (Growth inhibition 100) value of the second compound decreased by 2-fold or more when EPZ-5676 was added as compared to the DMSO control)
Result (combination with EPZ-5676) ([3]; NRAS Q61R (het)): Synergy (considered synergistic if the GI100 (Growth inhibition 100) value of the second compound decreased by 2-fold or more when EPZ-5676 was added as compared to the DMSO control)
Combination result with EPZ-5676, Retest (MOLM-13 (MLL-AF9) cells [4]; 150 nM EPZ-5676 pre-treatment vs DMSO): Synergy (considered synergistic if the GI100 (Growth inhibition 100) value of the second compound decreased by 2-fold or more when EPZ-5676 was added as compared to the DMSO control)
Result (combination with EPZ-5676) (MOLM-13 (MLL-AF9) cells [4]; Ras mutation status: None known): Synergy (considered synergistic if the GI100 (Growth inhibition 100) value of the second compound decreased by 2-fold or more when EPZ-5676 was added as compared to the DMSO control)
GI100 (MOLM-13 (MLL-AF9) cells [4]; Ras mutation status: None known, second compound, 72 h): 0.53
Combination result with EPZ-5676, Retest (SKM-1 (non-MLLr) cells [5]; [9]): Synergy (considered synergistic if the GI100 (Growth inhibition 100) value of the second compound decreased by 2-fold or more when EPZ-5676 was added as compared to the DMSO control)
Result (combination with EPZ-5676) (SKM-1 (non-MLLr) cells [5]; KRAS K117N (homo)): Synergy (considered synergistic if the GI100 (Growth inhibition 100) value of the second compound decreased by 2-fold or more when EPZ-5676 was added as compared to the DMSO control)
GI100 (SKM-1 (non-MLLr) cells [5]; [10]): 0.086
Result (combination with EPZ-5676) (ML-2 (MLL-AF6) cells): Synergy (considered synergistic if the GI100 (Growth inhibition 100) value of the second compound decreased by 2-fold or more when EPZ-5676 was added as compared to the DMSO control)
GI50 (ML-2 (MLL-AF6) cells; second compound, 72 h): 40 nM
GI100 (ML-2 (MLL-AF6) cells; second compound, 72 h): 0.26
GI100 (RS4-11 (MLL-AF4) cells): >10
Combination result with EPZ-5676, Primary screen [6]: Synergy (considered synergistic if the GI100 (Growth inhibition 100) value of the second compound decreased by 2-fold or more when EPZ-5676 was added as compared to the DMSO control)
GI100 (THP-1 (MLL-AF9) cells): >10
Combination result with EPZ-5676, Primary screen (MOLM-13 (MLL-AF9) cells [7]): Synergy (considered synergistic if the GI100 (Growth inhibition 100) value of the second compound decreased by 2-fold or more when EPZ-5676 was added as compared to the DMSO control)
Combination result with EPZ-5676, Primary screen (SKM-1 (non-MLLr) cells [8]): Synergy (considered synergistic if the GI100 (Growth inhibition 100) value of the second compound decreased by 2-fold or more when EPZ-5676 was added as compared to the DMSO control)

SMILES: Nc1ncn([C@@H]2O[C@H](CO)[C@@H](O)[C@H]2O)c(=O)n1 [Azacitidine]
Effect of Compound A2 on antiproliferative activity of the second agent ([1]; SKM-1 non-MLL-rearranged (Example 5)): no impact
Combination effect with Compound A2 (Table 4) (MOLM-13 (MLL-AF9) cells [2]; MOLM-13 (MLL-AF9), 7 Day Cotreatment Model): Strong Synergy
Combination effect with Compound A2 (Table 2) (MOLM-13 (MLL-AF9) cells [2]; MOLM-13 MLL-AF9): Synergy (Drug synergy was statistically defined by CI values less than 1)
Combination effect with Compound A2 (Table 3) (EOL-1 (MLL-PTD) cells; EOL-1 (MLL-PTD)): Synergy (Drug synergy was statistically defined by CI values less than 1)
Combination effect with Compound A2 (Table 3) (KOPM-88 (MLL-PTD) cells; KOPM-88 (MLL-PTD)): Synergy (Drug synergy was statistically defined by CI values less than 1)
Combination effect with Compound A2 (MV4-11 (MLL-AF4) cells; MV4-11, 7 Day Cotreatment (Example 1)): Synergy (A combination index less than one indicates synergy)
Combination effect with Compound A2 (Table 2) (MV4-11 (MLL-AF4) cells; MV4-11 MLL-AF4): Synergy (Drug synergy was statistically defined by CI values less than 1)
